Measurements published in US10420741B2, “Megalin antagonist” (EA Pharma Co., Ltd., priority 2014, dated 2019).
Entries after “also recorded” stand apart in the source; their conditions may differ.

Columns and labels:
megalin [1] = biological target: T1, megalin (Rattus norvegicus, UniProt P98158); assay: QCM method: binding ability to immobilized megalin (Reference Example 1); design: purified megalin from rat kidneys according to the method described in NPL 5 was used as the megalin; from tissue; host or cells: rat kidney; conditions: megalin protein immobilized crystal, colistin 240 μg, gentamicin 4000 μg, vancomycin 1600 μg, cisplatin 400 μg, tenofovir 1200 μg
Procedure: The binding ability of colistin, gentamicin, vancomycin, cisplatin, and tenofovir with respect to megalin was analyzed using the quartz crystal microbalance method (QCM method).
Regarding the immobilization of megalin protein using the Immobilization Kit for AFFINIX (registered trademark) (manufactured by Initium), according to the protocol recommended in the kit, a megalin protein solution adjusted to 12 to 14 μg/mL using Buffer A included in the kit was immobilized by being placed on the crystal installed in the holder.
In more detail, 8 μL of each drug solution was injected to the megalin protein-immobilized crystal placed in the surface of water containing 8 mL of buffer, and the frequency was measured. As a control, measurement was also performed in the same manner with respect to a crystal where the megalin protein was not immobilized. The measurement data was analyzed using dedicated analysis software AQUA (produced by Initium).

[2] = system: kidney tissue (renal tubular cell damage); assay: Nephrotoxicity caused by colistin in C57BL/6 mice, PAS staining and KIM-1 Western blot (Example 4)
Procedure: Division was made into a group in which 30 mg/kg/day of colistin was subcutaneously administered over four days to 12-week-old male C57BL/6 mice (colistin-administered group: colstin), a group in which 100 mg/kg/day of cilastatin was subcutaneously administered over four days in combination with the subcutaneous administration of 30 mg/kg/day of colistin over four days (colistin+cilastatin combination group: colstin+cilastatin), and, as a control, a group in which a physiological saline solution was subcutaneously administered over four days instead of colistin (saline group: saline), administration was performed in the same manner as the protocol of Reference Example 2 described above, after that, the kidney tissue was taken and histochemical staining (PAS staining) was performed.
Furthermore, using the extracted kidney tissue, the expression of KIM-1, which is a renal tubular cell damage marker, was confirmed by Western blot.

[3] = system: ATCC25922 strain (E. coli standard strain); assay: Disk method anti-microbial activity (Reference Example 4); type: cell-based
Procedure: An ATCC25922 strain (E. coli standard strain) was cultured for 20 hours using Mueller Hinton agar (MHA) and then the cultured colonies were suspended in saline and adjusted to obtain a solution equivalent to McFarland turbidity standard 0.5. After uniformly coating and drying the microbial solution on the MHA, 10 μg of colistin, cilastatin, and colistin and cilastatin were each added to 6 mm Whatman filter paper discs, disposed at equal intervals on the MHA described above, and cultured for 20 hours at 37° C., and the blocking circles were compared.

[4] = system: colistin-induced renal impairment; assay: Colistin nephropathy in rats, urinary NAG/CRE (Example 3)
Procedure: Cilastatin and colistin were co-administered to rats and it was investigated whether or not nephropathy due to colistin was reduced by the megalin ligand antagonistic action of cilastatin.
In evaluating the colistin nephropathy reduction effect due to cilastatin, a colistin solution and a cilastatin solution were prepared as follows.
In the preparation of the colistin solution, first, a colistin stock solution (colistin concentration: 10 mg/mL) was prepared by dissolving 360 mg of colistin sulfate in 30 mL of a saline solution. The colistin stock solution was sterilized by filtration with a 22 mm PVDF membrane and then stored at 4° C. and a colistin administration solution was prepared by diluting the solution with a saline solution before the colistin administration. […]
The concentrations of urinary β-D-N-acetyl-glucosaminidase (NAG) and creatinine (CRE) in the recovered urine were each measured using a measurement kit (product name: CREP 2 and BUNK, both were measured by Roche Diagnostics Co., Ltd.) using a discrete method automatic clinical chemistry analyzer (product name: COBAS INTEGRA 400 plus, manufactured by Roche Diagnostics Co., Ltd.), and the urinary NAG/CRE values of each test group were calculated.

[5] = system: nephrotoxicity of cisplatin; conditions: rats, reported in PTL 2; cited from earlier work
megalin [6] = biological target: T1, megalin
From the text: Next, detailed description will be given of the present invention through the illustration of examples, and the like; however, the present invention is not limited thereto. In the following Examples and the like, purified megalin from rat kidneys according to the method described in NPL 5 was used as the megalin, cilastatin sodium (produced by Sigma-Aldrich Co. LLC.) was used as the cilastatin, colistin sulfate (produced by Sigma-Aldrich Co. LLC.) was used as the colistin, gentamicin produced by Sigma-Aldrich Co. LLC. was used as the gentamicin, vancomycin produced by Sigma-Aldrich Co. LLC. was used as the vancomycin, tenofovir produced by Sigma-Aldrich Co. LLC. was used as the tenofovir, and cisplatin produced by Bristol-Myers Co., Ltd., was used as the cisplatin.
The antagonism effect with respect to the binding of colistin to megalin due to cilastatin was investigated using the QCM method.
As a control, measurement and analysis were carried out in the same manner except that cilastatin was not injected (cilastatin injection amount: 0 μg).
The antagonistic action of cilastatin on the binding of gentamicin, vancomycin, cisplatin, and tacrolimus to megalin was investigated using the QCM method.
Specifically, the measurement and analysis of the frequency were carried out in the same manner as for Example 1 except that the injection amount of cilastatin was set to 4000 μg and 4000 μg of gentamicin was used instead of 240 μg of colistin.
In addition, the measurement and analysis of the frequency were carried out in the same manner as for Example 1 except that the injection amount of cilastatin was set to 5000 μg and 1000 μg of vancomycin was used instead of 240 μg of colistin.
In addition, the measurement and analysis of the frequency were carried out in the same manner as for Example 1 except that the injection amount of cilastatin was set to 10000 μg and 800 μg of cisplatin was used instead of 240 μg of colistin.
Furthermore, the measurement and analysis of the frequency were carried out in the same manner as for Example 1 except that the injection amount of cilastatin was set to 2000 μg and 160 μg of tacrolimus was used instead of 240 μg of colistin.

proximal tubular cells = assay: Renal tubular cell damage by colistin in kidney specific mosaic-type megalin knockout mice (Reference Examples 2 and 3); type: in vivo, mice (apoE cre/megalin loxP)
Procedure: Renal tubular cell damage caused when colistin was administered to megalin mosaic-type knockout mice was analyzed.
First, 12-week-old kidney specific mosaic-type megalin knockout mice (apoE cre/megalin loxP) were used in the experiments (in these mice, genes expressing megalin in about 60% of proximal tubular cells were knocked out). With respect to these mice, the subcutaneous administration of colistin was performed over four days (30 mg/kg/day), after that, proximal tubular cells were analyzed and immunohistochemical staining was performed.
With the same method as in Reference Example 2, colistin was administered to renal-specific mosaic-type megalin knockout mice, after that, the proximal tubular cells were analyzed, and the expression of KIM-1 (Kidney Injury Molecule 1), which is an injury marker of proximal tubular cells, and the expression of megalin were confirmed using a fluorescent double staining method.

[7] = 10 μg on 6 mm filter paper disc, MHA, 20 hours at 37° C.
[8] = colistin 30 mg/kg/day subcutaneous over four days

T1 sequence (P98158 26-4660): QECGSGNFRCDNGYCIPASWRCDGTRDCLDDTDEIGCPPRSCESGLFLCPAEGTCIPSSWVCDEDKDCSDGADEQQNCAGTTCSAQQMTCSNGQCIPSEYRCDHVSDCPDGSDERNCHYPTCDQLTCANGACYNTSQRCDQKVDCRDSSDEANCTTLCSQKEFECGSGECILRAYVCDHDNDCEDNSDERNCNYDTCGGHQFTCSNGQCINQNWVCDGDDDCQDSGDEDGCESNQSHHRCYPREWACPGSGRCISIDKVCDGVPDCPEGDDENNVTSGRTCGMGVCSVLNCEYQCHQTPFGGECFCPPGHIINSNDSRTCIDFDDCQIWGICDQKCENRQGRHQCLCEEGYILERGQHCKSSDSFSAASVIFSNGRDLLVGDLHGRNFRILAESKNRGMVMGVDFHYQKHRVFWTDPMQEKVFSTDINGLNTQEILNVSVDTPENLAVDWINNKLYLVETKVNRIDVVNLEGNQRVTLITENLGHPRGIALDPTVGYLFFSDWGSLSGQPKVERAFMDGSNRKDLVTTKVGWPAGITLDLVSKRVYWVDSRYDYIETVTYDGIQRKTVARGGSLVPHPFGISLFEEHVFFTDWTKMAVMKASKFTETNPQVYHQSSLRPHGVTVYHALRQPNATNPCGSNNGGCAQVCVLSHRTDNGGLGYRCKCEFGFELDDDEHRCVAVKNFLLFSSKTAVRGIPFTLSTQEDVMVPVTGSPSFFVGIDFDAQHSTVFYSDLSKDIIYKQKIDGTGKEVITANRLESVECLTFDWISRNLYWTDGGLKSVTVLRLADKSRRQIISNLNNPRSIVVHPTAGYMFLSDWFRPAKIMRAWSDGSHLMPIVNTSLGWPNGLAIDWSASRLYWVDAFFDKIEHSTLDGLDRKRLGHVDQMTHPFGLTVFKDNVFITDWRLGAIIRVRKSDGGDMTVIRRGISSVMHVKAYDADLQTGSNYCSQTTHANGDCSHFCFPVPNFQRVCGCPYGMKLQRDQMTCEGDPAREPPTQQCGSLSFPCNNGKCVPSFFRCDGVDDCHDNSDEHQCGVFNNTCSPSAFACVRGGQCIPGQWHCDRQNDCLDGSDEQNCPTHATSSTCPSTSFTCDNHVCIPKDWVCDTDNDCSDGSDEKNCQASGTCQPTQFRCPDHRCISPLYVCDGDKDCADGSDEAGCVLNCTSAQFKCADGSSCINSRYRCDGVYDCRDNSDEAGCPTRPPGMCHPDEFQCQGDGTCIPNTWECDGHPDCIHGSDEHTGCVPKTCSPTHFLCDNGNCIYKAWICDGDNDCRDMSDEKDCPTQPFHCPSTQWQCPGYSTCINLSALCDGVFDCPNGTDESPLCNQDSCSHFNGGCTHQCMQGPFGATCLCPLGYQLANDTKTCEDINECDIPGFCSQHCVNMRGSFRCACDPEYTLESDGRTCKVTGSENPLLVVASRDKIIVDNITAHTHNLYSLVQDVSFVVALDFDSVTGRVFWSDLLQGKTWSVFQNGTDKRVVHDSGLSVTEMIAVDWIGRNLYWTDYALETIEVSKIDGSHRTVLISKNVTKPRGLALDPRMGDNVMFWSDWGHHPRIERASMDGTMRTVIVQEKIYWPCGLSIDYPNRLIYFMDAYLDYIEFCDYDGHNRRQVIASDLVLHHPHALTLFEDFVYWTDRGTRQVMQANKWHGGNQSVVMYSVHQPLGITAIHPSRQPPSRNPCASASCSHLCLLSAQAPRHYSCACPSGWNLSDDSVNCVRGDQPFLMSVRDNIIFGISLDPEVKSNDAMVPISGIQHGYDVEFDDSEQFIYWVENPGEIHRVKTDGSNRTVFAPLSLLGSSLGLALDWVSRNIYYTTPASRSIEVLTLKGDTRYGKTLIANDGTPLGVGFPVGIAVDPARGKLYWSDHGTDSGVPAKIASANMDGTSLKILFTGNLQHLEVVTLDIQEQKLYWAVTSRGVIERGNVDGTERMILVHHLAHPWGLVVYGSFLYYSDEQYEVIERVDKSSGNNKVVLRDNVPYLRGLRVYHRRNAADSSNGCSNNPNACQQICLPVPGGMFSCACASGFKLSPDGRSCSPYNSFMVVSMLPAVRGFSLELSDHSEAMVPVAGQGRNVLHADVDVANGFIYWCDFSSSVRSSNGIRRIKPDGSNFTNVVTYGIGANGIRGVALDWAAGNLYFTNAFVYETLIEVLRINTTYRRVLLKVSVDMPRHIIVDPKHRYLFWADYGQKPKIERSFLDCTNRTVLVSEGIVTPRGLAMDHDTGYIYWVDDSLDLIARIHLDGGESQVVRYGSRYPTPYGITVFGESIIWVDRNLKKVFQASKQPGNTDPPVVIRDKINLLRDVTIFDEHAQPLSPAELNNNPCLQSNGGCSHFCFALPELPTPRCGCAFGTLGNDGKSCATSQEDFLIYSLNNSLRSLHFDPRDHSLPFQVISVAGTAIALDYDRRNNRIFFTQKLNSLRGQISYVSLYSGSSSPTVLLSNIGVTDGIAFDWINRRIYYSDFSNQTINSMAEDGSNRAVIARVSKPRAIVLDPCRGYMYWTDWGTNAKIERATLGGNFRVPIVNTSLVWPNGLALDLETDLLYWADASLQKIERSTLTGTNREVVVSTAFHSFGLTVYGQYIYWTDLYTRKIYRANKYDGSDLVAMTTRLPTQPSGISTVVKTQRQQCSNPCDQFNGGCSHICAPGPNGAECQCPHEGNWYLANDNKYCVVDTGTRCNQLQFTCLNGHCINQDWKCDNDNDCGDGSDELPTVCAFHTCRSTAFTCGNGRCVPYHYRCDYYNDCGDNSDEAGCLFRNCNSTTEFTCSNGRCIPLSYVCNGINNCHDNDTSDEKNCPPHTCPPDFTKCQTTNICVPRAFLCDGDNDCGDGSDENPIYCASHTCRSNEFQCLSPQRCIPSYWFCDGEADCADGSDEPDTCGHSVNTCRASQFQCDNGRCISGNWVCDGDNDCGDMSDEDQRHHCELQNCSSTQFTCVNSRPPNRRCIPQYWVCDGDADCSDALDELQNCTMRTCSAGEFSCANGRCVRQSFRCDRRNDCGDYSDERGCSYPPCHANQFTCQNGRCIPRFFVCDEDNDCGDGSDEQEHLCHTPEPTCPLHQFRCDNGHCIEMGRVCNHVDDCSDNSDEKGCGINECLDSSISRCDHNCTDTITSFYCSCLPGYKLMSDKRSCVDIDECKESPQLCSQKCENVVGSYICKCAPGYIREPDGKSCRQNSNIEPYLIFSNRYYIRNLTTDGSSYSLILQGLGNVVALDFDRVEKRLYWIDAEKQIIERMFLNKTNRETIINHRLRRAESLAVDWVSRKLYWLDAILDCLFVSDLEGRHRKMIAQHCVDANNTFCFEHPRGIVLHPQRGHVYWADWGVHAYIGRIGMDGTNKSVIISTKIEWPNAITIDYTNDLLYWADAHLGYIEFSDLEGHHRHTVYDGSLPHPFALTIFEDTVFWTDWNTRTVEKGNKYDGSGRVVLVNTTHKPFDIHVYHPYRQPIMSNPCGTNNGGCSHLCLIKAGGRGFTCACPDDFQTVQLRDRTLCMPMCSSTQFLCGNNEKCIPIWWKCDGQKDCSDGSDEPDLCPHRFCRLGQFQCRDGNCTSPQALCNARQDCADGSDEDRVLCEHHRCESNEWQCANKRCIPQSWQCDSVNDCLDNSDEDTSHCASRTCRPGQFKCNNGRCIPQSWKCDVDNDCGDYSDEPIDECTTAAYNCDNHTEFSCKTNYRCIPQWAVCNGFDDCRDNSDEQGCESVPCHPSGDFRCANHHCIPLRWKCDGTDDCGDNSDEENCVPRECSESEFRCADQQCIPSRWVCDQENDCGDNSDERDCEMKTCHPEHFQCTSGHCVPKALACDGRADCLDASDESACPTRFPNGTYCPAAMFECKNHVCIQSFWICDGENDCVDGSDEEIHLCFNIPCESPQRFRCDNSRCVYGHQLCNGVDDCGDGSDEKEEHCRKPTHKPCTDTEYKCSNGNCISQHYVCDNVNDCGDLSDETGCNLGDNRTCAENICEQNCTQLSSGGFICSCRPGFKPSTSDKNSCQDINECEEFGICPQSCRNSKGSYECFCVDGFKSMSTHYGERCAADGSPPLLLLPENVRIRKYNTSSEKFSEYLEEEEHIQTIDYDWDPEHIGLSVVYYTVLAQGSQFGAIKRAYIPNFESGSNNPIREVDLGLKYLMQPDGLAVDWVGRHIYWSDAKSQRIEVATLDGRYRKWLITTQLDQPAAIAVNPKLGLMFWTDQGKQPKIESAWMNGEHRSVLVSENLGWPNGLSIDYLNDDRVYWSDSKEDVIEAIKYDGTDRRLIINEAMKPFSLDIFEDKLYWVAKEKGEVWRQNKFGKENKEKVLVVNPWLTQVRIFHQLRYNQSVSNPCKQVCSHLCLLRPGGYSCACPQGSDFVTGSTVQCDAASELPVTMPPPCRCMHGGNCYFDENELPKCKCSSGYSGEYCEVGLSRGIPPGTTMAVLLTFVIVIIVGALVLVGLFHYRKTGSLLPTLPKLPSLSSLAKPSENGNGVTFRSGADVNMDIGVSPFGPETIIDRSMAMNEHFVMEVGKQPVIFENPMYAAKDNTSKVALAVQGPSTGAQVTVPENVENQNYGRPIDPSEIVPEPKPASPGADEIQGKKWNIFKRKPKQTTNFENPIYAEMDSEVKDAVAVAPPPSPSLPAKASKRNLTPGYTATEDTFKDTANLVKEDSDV

## N.N.[Cl][Pt][Cl] [cisplatin]
Megalin [1]
  binding to megalin (frequency decrease after injection): binding to megalin was confirmed

## C[C@H](Cn1cnc2c(N)ncnc21)OCP(=O)(O)O [tenofovir]
Megalin [1]
  binding to megalin (frequency decrease after injection): not possible to find the binding

## CC1(C)C[C@@H]1C(=O)N/C(=C\CCCCSC[C@H](N)C(=O)O)C(=O)O [cilastatin, (Z)-7-[[(R)-2-amino-2-carboxyethyl]thio]-2-[[[(S)-2,2-dimethylcyclopropyl]carbonyl]amino]-2-heptenoic acid]
[2]; cilastatin 100 mg/kg/day combined with colistin 30 mg/kg/day
  renal tubular cell damage caused by colistin, histologically and biochemically: remarkably improved
[3]; [7]
  blocking circle / anti-microbial activity: a blocking circle was not formed and anti-microbial activity was not exhibited; also recorded: anti-microbial activity could not be seen
[3]; colistin and cilastatin on the same disc
  influence on the anti-microbial activity of colistin: does not affect the anti-microbial activity of colistin
[4]; co-administration of cilastatin 100 mg/kg with colistin, rats
  colistin-induced renal impairment: colistin-induced renal impairment was reduced
[5]
  nephrotoxicity of cisplatin on co-administration with cilastatin: the nephrotoxicity was improved
Megalin [6]; cilastatin 2000 μg before 160 μg tacrolimus
  inhibition of binding of tacrolimus to megalin protein: inhibited by cilastatin
Megalin [6]; cilastatin 4000 μg before 4000 μg gentamicin
  inhibition of binding of gentamicin to megalin protein: inhibited by cilastatin
Megalin [6]; cilastatin 5000 μg before 1000 μg vancomycin
  inhibition of binding of vancomycin to megalin protein: inhibited by cilastatin
Megalin [6]; cilastatin 10000 μg before 800 μg cisplatin
  inhibition of binding of cisplatin to megalin protein: inhibited by cilastatin
Megalin [6]; cilastatin 800, 5000 or 10000 μg injected before 240 μg colistin
  inhibition of binding of colistin to megalin protein: inhibited depending on the concentration of the cilastatin

## gentamicin
Megalin [1]
  binding to megalin (frequency decrease after injection): binding to megalin was confirmed

## colistin
[2]; [8]
  dilatation and cast formation of the tubules (PAS staining): dilatation and cast formation of the tubules was observed
  expression of KIM-1 in kidney tissue (Western blot): increased expression of KIM-1 was observed
Megalin [1]
  binding to megalin (frequency decrease after injection): binding to megalin was confirmed
Proximal tubular cells; colistin 30 mg/kg/day subcutaneous over four days, fluorescent double staining with megalin
  KIM-1 expression in proximal tubular cells: KIM-1 was also expressed in the proximal tubular cells in which megalin, which remained without being knocked out, was expressed
Proximal tubular cells; colistin 30 mg/kg/day subcutaneous over four days, immunohistochemical staining
  vacuoles in cytoplasm of proximal tubular cells expressing megalin versus megalin knocked out cells: numerous vacuoles (arrows) were observed in the cytoplasm
Proximal tubular cells; mosaic-type megalin knockout mice
  dependence of proximal renal tubular cell damage on megalin expression: largely depended on the expression of megalin
[3]; [7]
  blocking circle / anti-microbial activity: a growth inhibition circle was formed
  blocking circle diameter: 13.5 mm
[4]; saline/colistin group, fifth day, colistin total 20.5 mg/kg over 5 days into jugular vein
  urinary NAG/CRE values relative to saline/saline group: ≥ 4 times

## C=CC[C@@H]1/C=C(\C)C[C@H](C)C[C@H](OC)[C@H]2O[C@@](O)(C(=O)C(=O)N3CCCC[C@H]3C(=O)O[C@H](/C(C)=C/[C@@H]3CC[C@@H](O)[C@H](OC)C3)[C@H](C)[C@@H](O)CC1=O)[C@H](C)C[C@@H]2OC [tacrolimus]
Megalin [1]
  binding to megalin (frequency decrease after injection): binding to megalin was confirmed

## CN[C@H](CC(C)C)C(=O)N[C@H]1C(=O)N[C@@H](CC(N)=O)C(=O)N[C@H]2C(=O)N[C@H]3C(=O)N[C@H](C(=O)N[C@H](C(=O)O)c4cc(O)cc(O)c4-c4cc3ccc4O)[C@H](O)c3ccc(c(Cl)c3)Oc3cc2cc(c3O[C@@H]2O[C@H](CO)[C@@H](O)[C@H](O)[C@H]2O[C@H]2C[C@](C)(N)[C@H](O)[C@H](C)O2)Oc2ccc(cc2Cl)[C@H]1O [vancomycin]
Megalin [1]
  binding to megalin (frequency decrease after injection): binding to megalin was confirmed
